Results: patent US8999983B2, “Modulators of Hec1 activity and methods therefor” (Taivex Therapeutics Corporation, priority 2011, dated 2015)
Each block holds one compound with its values, some of them ahead of it.

Tests used:
[1] = Pharmacokinetics of salt forms, single IV dose; type: in vivo, CD-1 mice; settings: male, CD-1, mouse
Procedure: (§1) Pharmacokinetics of Hec1 Inhibitor Salts: Pharmacokinetic comparison of different salt forms (HCl, tosylate, mesylate salt) was studied for the compounds as shown in Table 3 below:
(§2) Formulations for both PO (oral) and IV (intravenous) doses were prepared in saline with 2% Tween 80 and 10% DMSO. Concentrations were adjusted based on the molecular weights of the freebase and salts.
IV studies: A single dose of 1 mg/kg of each of the three test articles was IV administered to 21 healthy male CD-1 mice (weight ranged from 18-27 g). The dosing volume was 5 mL/kg. Food and water were available to all animals during the experiment period.
(§3) Three mice were bled (ca. 1 mL) at each timepoint (0.5, 1, 1.5, 2, 4, 6, and 24 hours post-dose for PO study and 0.083, 0.5, 1, 2, 4, 6, and 24 hours post-dose for IV study) by cardiac puncture and blood was collected into K3EDTA blood collection tubes. Blood samples were centrifuged immediately at 4° C. at 3000 rpm for 10 min. Plasma samples were transferred and stored at −20° C. prior to analysis.
(§4) The plasma concentrations of 110095 (compound 27 of Table 1, the free base of all three test articles) were determined by LC MS/MS in the positive MRM mode; all doses were normalized to the freebase (110095) concentration. The mean plasma concentration from each time point (n=3) were used to calculate the PK parameters using a non-compartmental model. Pharmacokinetic parameters (Cmax, Tmax, t½, AUC, etc.) were calculated using WinNonlin Software (version 5.3, Pharsight, Sunnyvale Calif. 94086 USA), the results and absolute bioavailability results are presented in Table 6. Table 4 lists mean concentrations (ng/mL) of 110095 in mouse plasma following a single oral dose of 10 mg/kg of 110095-HCl-1007, 110095-03-03 or 110095-02-02 to CD-1 mice, and Table 5 lists mean concentrations (ng/mL) of 110095 in mouse plasma following a single IV dose of 1 mg/kg of 110095-HCl-1007, 110095-03-03 or 110095-02-02 to CD-1 mice. Table 6 lists PK parameters and absolute bioavailability result of 110095-HCl-1007, 110095-03-03 or 110095-02-02 in CD-1 mice.

[2] = Pharmacokinetics of salt forms, single oral dose; type: in vivo, CD-1 mice; settings: male, CD-1, mouse, plasma
Procedure: as §1, §2
PO studies: A single dose of 10 mg/kg of each of the three test compounds was orally administered to 21 healthy male CD-1 mice (weight ranged from 18-27 g). The dosing volume was […]. Animals were fasted approximately 16 hours prior to dosing until 4 hours post dosing. Water was available to all animals during the experiment period.
as §3, §4

[3] = tested on: caspase-3, PARP, Mcl-1 and XIAP; experiment: Immunoblot of apoptotic pathway proteins; type: cell-based; settings: 1 μM, 24 or 48 hours
Procedure: Immunoblot Analysis: For immunoblotting experiments, cells were plated in a 6-well culture plate and cultured overnight. Cells were incubated with the test compounds for the indicated time and whole cell lysate was harvested by adding 1×SDS-PAGE Sample Buffer (62.5 mM Tris-HCl (pH 6.8 at 25° C.), 2% w/v SDS, 10% glycerol, 50 mM DTT, and 0.01% w/v bromophenol blue or phenol red). Proteins were separated by SDS-PAGE electrophoresis and transferred to PVDF membrane. Protein expression was immunoblotted using various primary antibodies and detected using Immobilon Western Chemiluminescent HRP Substrate (Millipore, Billerica Mass. 01821 USA). Antibodies used include anti-Cleaved Caspase3, (Rabbit, Cell Signaling Technology, Danvers Mass. 01923 USA); anti-PARP (Rabbit, Cell Signaling Technology, Danvers Mass. 01923 USA); anti-MCL-1 (mouse, BD Biosciences, San Jose Calif. 95131 USA); anti-XIAP (rabbit, Cell Signaling Technology, Danvers Mass. 01923 USA); anti-Bcl-2 (mouse, Santa Cruz Biotechnology, Santa Cruz Calif. 95060); anti-Cyclin BI (mouse, BD Biosciences, San Jose Calif. 95131 USA); anti-Cyclin D1 (mouse, Santa Cruz Biotechnology, Santa Cruz Calif. 95060); Anti-Nek2 (mouse, BD Biosciences, San Jose Calif. 95131 USA); Anti-HEC1, (rabbit, GeneTex, Inc., Irvine Calif. 92606 USA); and anti-actin (mouse, Millipore, Billerica Mass. 01821 USA).
100 nM Taxol was used as a positive control drug for apoptosis.

[4] = tested on: MDA-MB-231; experiment: Antiproliferation assay (MTS), MDA-MB-231 cells; type: cell-based; settings: Homo sapiens, MDA-MB-231, 96 h, read-out: Antiproliferative IC50 MDA-MB-231, Table 1
Procedure: (§5) Cells were grown at 37° C. in a humidified atmosphere consisting of 5% CO2 and 95% air.
(§6) Antiproliferation Assays: Cells were plated in a 96-well culture plate with 2000-8000 cells per well. The compounds were prepared in DMSO and used to treat cells in a final concentration of less than 1% DMSO. Compound treatment started after overnight incubation of cells (T0). […] Compound was added to the plate in triplicate wells, and the plates were then incubated for 96 hours. DMSO (compound diluent) was also included and added to the plate in control wells. Cell viability was then determined by MTS assay using the CellTiter 96® aqueous non-radioactive cell proliferation assay system (Promega, Madison, Wis. 53711 USA). A plate reader (Vmax, Molecular Devices, Sunnyvale Calif. 94089 USA) was used to determine the optical densities, and the results were used to deduce concentration-response curves. […] The results were analyzed using linear regression software (GraphPad Prism 5; GraphPad Software Inc. La Jolla Calif. 92037 USA).

[5] = tested on: K562; experiment: Antiproliferation assay (MTS), K562 cells; type: cell-based; settings: Homo sapiens, K562, 96 h, Table 1, read-out: Antiproliferative IC50 K562
Procedure: as §5, §6

[6] = tested on: MDA-MB-468; experiment: Antiproliferation assay (MTS), MDA-MB-468 cells; type: cell-based; settings: Homo sapiens, MDA-MB-468, 96 h, Table 1, read-out: Antiproliferative IC50 MDA-MB-468
Procedure: as §5, §6

[7] = tested on: Hela; experiment: Antiproliferation assay (MTS), HeLa cells; type: cell-based; settings: Homo sapiens, 96 h, Table 1, read-out: Antiproliferative IC50 Hela
Procedure: as §5, §6

[8] = molecular target: T1, hERG potassium channels (Homo sapiens, UniProt Q12809); experiment: [3H]Astemizole competitive binding assay, hERG; settings: [3H]-astemizole displacement, hERG membrane protein
T1 construct: purchased PerkinElmer
Procedure: Here, [3H] Astemizole competitive binding assays were performed to determine the ability of compounds to displace the known radioligand [3H]-astemizole from the hERG potassium channels, following standard protocol with minor modifications. In brief, assays were performed in 200 μl of binding buffer (50 mM HEPES, pH 7.4, 60 mM KCl, and 0.1% BSA) containing 1.5 nM of [3H]astemizole, 3 μg/well of hERG membrane protein (PerkinElmer), and TAI-1 (in 1% DMSO final concentration) at 27° C. for 60 min. Nonspecific binding (NSB) was determined in the presence of 10 μM astemizole. […] Binding was terminated by rapid filtration onto polyethyleneimine-presoaked, buffer-washed UniFilter-96, GF/C (Perkin Elmer) using a vacuum manifold (Porvair Sciences). Captured radiolabel signal was detected using TopCount NXT (Perkin Elmer). […] All results are derived from two independent experiments.

[9] = tested on: Caco-2 cell monolayers; experiment: Caco-2 cell permeability; type: in vitro ADME; settings: 10 μM, 2 hour, both directions
Procedure: Here, Caco-2 cell line (cat. HTB-37TM) was purchased from the ATCC. Cells were cultivated in T-75 flasks in a cell culture incubator set at 37° C., 5% CO2, 95% relative humidity. Cells were allowed to grow to reach 80-90% confluence before seeding. […] The cells were grown in culture medium consisting of Dulbecco's modified Eagle's medium supplemented with 10% fetal bovine serum, 100 U/mL penicillin and 100 μg/mL streptomycin. The culture medium was replaced every 2 days and the cells were maintained at 37° C., 95% relative humidity and 5% CO2.
For a quality integrity control of the monolayers of seeded cells, the Lucifer yellow (LY) transport experiment was performed to evaluate monolayer integrity. As for a quality control of each filter, the transepithelial electrical resistance (TEER) was measured before the start of and at the end of transport experiments. Physiologically and morphologically well developed Caco-2 cell monolayers with TEER values greater than 400 Ωcm^2 were used for the studies.
The solution volumes in apical and basolateral chambers were set to 0.4 and 0.6 ml respectively. Samples were taken from both the apical and basolateral compartment at the end of the 2 hour incubation at 37° C. […] The excitation and emission wavelengths were 490 nm and 530 nm, respectively.

T1 sequence (Q12809 whole entry): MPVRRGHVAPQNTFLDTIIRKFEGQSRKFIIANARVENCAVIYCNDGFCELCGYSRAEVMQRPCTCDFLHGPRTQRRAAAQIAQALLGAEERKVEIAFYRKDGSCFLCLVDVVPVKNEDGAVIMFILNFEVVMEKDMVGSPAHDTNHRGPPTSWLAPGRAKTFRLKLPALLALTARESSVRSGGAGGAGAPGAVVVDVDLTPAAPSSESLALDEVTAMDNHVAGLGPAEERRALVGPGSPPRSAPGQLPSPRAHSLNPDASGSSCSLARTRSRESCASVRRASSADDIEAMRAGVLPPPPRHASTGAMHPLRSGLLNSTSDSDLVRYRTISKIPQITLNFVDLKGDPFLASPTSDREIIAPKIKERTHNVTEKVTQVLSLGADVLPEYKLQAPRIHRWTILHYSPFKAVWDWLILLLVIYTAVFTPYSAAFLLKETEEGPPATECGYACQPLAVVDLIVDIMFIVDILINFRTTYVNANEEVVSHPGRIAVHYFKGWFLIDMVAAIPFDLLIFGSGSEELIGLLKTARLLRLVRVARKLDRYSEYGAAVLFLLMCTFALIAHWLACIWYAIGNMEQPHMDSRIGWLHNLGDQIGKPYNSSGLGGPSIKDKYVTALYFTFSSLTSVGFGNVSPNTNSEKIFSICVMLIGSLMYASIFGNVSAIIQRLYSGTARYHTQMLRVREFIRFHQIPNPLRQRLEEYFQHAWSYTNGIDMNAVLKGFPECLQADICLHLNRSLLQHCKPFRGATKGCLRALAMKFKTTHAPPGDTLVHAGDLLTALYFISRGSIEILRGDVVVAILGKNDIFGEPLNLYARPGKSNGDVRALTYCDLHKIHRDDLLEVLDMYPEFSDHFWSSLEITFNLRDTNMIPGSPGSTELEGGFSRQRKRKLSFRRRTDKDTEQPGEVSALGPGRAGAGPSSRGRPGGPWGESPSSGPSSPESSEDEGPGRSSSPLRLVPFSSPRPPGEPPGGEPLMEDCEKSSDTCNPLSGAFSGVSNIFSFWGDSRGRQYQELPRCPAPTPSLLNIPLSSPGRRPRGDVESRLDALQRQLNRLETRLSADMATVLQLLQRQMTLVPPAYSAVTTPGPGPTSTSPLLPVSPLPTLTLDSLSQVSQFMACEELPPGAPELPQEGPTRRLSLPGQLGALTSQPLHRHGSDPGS

AUC(0-inf) ([1]; in vivo, iv, 1 mg/kg): 3000 ng·h/mL
AUC(0-t) ([1]; in vivo, iv, 1 mg/kg): 2980 ng·h/mL
MRT ([1]; in vivo, iv, 1 mg/kg): 3.3 h
half-life ([1]; in vivo, iv, 1 mg/kg): 3.61 h
concentration at […] ([1]; plasma, IV 1 mg/kg, 0.083 h, read-out: mean concentration of 110095 in mouse plasma): 870 ng/mL
concentration at 0.5 h ([1]; plasma, IV 1 mg/kg, 0.5 h, read-out: mean concentration of 110095 in mouse plasma): 684 ng/mL
concentration at 1 h ([1]; plasma, IV 1 mg/kg, 1 h, read-out: mean concentration of 110095 in mouse plasma): 549 ng/mL
concentration at 2 h ([1]; plasma, IV 1 mg/kg, 2 h, read-out: mean concentration of 110095 in mouse plasma): 422 ng/mL
concentration at 4 h ([1]; plasma, IV 1 mg/kg, 4 h, read-out: mean concentration of 110095 in mouse plasma): 202 ng/mL
concentration at 6 h ([1]; plasma, IV 1 mg/kg, 6 h, read-out: mean concentration of 110095 in mouse plasma): 93.2 ng/mL
concentration at 24 h ([1]; plasma, IV 1 mg/kg, 24 h, read-out: mean concentration of 110095 in mouse plasma): 3.68 ng/mL
AUC(0-inf) ([2]; PO 10.0 mg/kg): 25100 ng·h/mL
AUC(0-t) ([2]; PO 10.0 mg/kg): 25100 ng·h/mL
Cmax ([2]; PO 10.0 mg/kg): 4060 ng/mL
MRT ([2]; PO 10.0 mg/kg): 4.11 h
Tmax ([2]; PO 10.0 mg/kg): 1 h
half-life ([2]; PO 10.0 mg/kg): 2.81 h
bioavailability ([2]; PO 10.0 mg/kg vs IV 1.00 mg/kg, read-out: F % (absolute bioavailability)): 84%
concentration at 0.5 h ([2]; PO 10 mg/kg, 0.5 h, read-out: mean concentration of 110095 in mouse plasma): 1800 ng/mL
concentration at 1 h ([2]; PO 10 mg/kg, 1 h, read-out: mean concentration of 110095 in mouse plasma): 4060 ng/mL
concentration at […] ([2]; PO 10 mg/kg, 1.5 h, read-out: mean concentration of 110095 in mouse plasma): 3660 ng/mL
concentration at 2 h ([2]; PO 10 mg/kg, 2 h, read-out: mean concentration of 110095 in mouse plasma): 3560 ng/mL
concentration at 4 h ([2]; PO 10 mg/kg, 4 h, read-out: mean concentration of 110095 in mouse plasma): 2170 ng/mL
concentration at 6 h ([2]; PO 10 mg/kg, 6 h, read-out: mean concentration of 110095 in mouse plasma): 1140 ng/mL
concentration at 24 h ([2]; PO 10 mg/kg, 24 h, read-out: mean concentration of 110095 in mouse plasma): 14.8 ng/mL
Compound: COCCOc1cnc(Sc2cc(C)c(-c3csc(NC(=O)c4ccncc4)n3)c(C)c2)cn1.Cl [110095-HCl-1007]

IC50 [4]: 32 nM
IC50 [5]: 37.6 nM
IC50 [6]: 60.1 nM
IC50 [7]: 35.6 nM
Compound: Cc1cc(Sc2cnccn2)cc(C)c1-c1csc(NC(=O)c2ccnc(F)c2)n1 [Compound 19, N-{4-(2,6-Dimethyl-4-(pyrazin-2-ylthio)phenyl)thiazol-2-yl}-2-fluoroisonicotinamide]
levels of apoptotic (caspase-3, PARP) and anti-apoptotic (Mcl-1, XIAP) proteins [3]: cleavage of the apoptotic proteins accompanied by down-regulation of the anti-apoptotic proteins

IC50 [4]: 7.5 nM
IC50 [5]: 14.1 nM
IC50 [6]: 10.4 nM
IC50 [7]: 10.9 nM
Compound: COCCOc1ccc(Oc2cc(C)c(-c3csc(NC(=O)c4ccnc(F)c4)n3)c(C)c2)cc1 [Compound 20, 2-Fluoro-N-(4-{4-(4-(2-methoxyethoxy)phenoxy)-2,6-dimethylphenyl}thiazol-2-yl)isonicotinamide]
levels of apoptotic (caspase-3, PARP) and anti-apoptotic (Mcl-1, XIAP) proteins [3]: cleavage of the apoptotic proteins accompanied by down-regulation of the anti-apoptotic proteins

Caco-2 permeability [9]: moderate Caco-2 permeability
Compound: COCCOc1cnc(Oc2cc(C)c(-c3csc(NC(=O)c4ccncc4)n3)c(C)c2)cn1 [Compound 22, N-(4-{4-(5-(2-Methoxyethoxy)pyrazin-2-yloxy)-2,6-dimethylphenyl}thiazol-2-yl)isonicotinamide]
IC50 [8]: > 10000 nM

Compound: COc1cnc(Sc2cc(C)c(-c3csc(NC(=O)c4ccncc4)n3)c(C)c2)cn1 [Compound 25, N-{4-(4-(5-Methoxypyrazin-2-ylthio)-2,6-dimethylphenyl)thiazol-2-yl}isonicotinamide]
IC50 [8]: > 10000 nM
